Usually inhibition stands for the share of the control response that was lost under treatment.

In this assay the target is T1, Phospholipase A2, membrane associated (Homo sapiens) (UniProt P14555).
T1 sequence (whole entry): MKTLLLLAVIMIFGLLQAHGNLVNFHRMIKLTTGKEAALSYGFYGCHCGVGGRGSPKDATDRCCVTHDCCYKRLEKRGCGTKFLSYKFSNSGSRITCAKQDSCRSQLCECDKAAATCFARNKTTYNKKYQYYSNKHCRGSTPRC
Briefly: Inhibitory activity against human synovial fluid phospholipase A2 (HSF-PLA2). The note with it: concentration not given here. Set-up: concentration or dose not given beside the values.

`CCCCCCCCCCS(=O)(=O)CC(CCCCCC)COP(=O)(O)OCCOCc1ccccc1` (stereo in doubt; form 2): the inhibition came to 79%.
For `CCCCCCCCCCS(=O)(=O)N[C@H](CCCCCC)COP(=O)(O)OCCO` the value was 40%; for `CCCCCCCCCCCC(=O)NC(CCCCCC)COP(=O)(O)OCCOCc1ccccc1` (stereo not given), 6%.
As to `CCCCCCCCCCS(=O)(=O)NC(CCCCCC)COP(=O)(O)OCCO` (stereo in doubt; form 2), the inhibition came to 44%.
For `CCCCCCCCCCCC(=O)NC(CCCCCC)COP(=O)(O)OCCCC` (stereo not given) the value was 80%; for `CCCCCCCCCCS(=O)(=O)NC(CCc1ccccc1)COP(=O)(O)OCCOCc1ccccc1` (stereo not given), 24%; for `CCCCCCCCCCS(=O)(=O)NC(CCCCCC)COP(=O)(O)CCCC` (stereo not given), 30%.
For `CCCCCCCCCCS(=O)(=O)NC(CCCCCC)COP(=O)(O)OCCOCc1ccccc1` (stereo in doubt; form 2) the value was 36%; for `CCCCCCCCCCCC(=O)NC(CCCCCC)COP(=O)(O)OCC(N)C(=O)O` (stereo not given), 31%; for `CCCCCCCCOCC(COP(=O)(O)OCC[N+](C)(C)C)OP(=O)(O)CCCCCCC` (stereo not given), 9%.
In the case of `CCCCCCCCCCS(=O)(=O)N[C@H](CCCCCC)COP(=O)(O)OCCOCc1ccccc1` (stereo in doubt; form 2), the inhibition is 46%.
For `CCCCCCCCCCCC(=O)NC(CCCCCC)COP(=O)(O)CCCC` (stereo not given) the value was 45%.
For `CCCCCCCCCCS(=O)(=O)N[C@H](CCCCCC)COP(=O)(O)OCCOCc1ccccc1` (stereo in doubt; form 1) the value was 45%; for `CCCCCCCCCCS(=O)(=O)NC(CCCCCC)COP(=O)(O)OCCO` (stereo in doubt; form 1), 49%; for `CCCCCCCCCCCC(=O)NC(CCCCCC)COP(=O)(O)OCCO` (stereo not given), 61%.
For `CCCCCCCCCCS(=O)(=O)NC(CCCCCC)COP(=O)(O)OCCCC` (stereo not given) the value was 0%.
For `CCCCCCCCCCCC(=O)NC(CCCCCC)COP(=O)(CCCC)OC` (stereo not given), the inhibition is 24%.
For `CCCCCCCCOCC(COP(=O)(O)OCCN)OP(=O)(O)CCCCCCC` (stereo not given) the value was 33%; for `CCCCCCCCCCS(=O)(=O)CC(CCCCCC)COP(=O)(O)OCCOCc1ccccc1` (stereo in doubt; form 1), 29%; for `CCCCCCCCCCS(=O)(=O)NC(CCCCCC)COP(=O)(O)OCCOCc1ccccc1` (stereo in doubt; form 1), 12%.
In turn, `CCCCCCCCCCC(=O)NC(CCCCCC)COP(=O)(O)OCCN` (stereo not given) gave an inhibition of 28%.
For `CCCCCCCCCCS(=O)(=O)N[C@H](CCCCCC)COP(=O)(O)OCCOCc1ccccc1` (stereo in doubt; form 3) the value was 74%; for `CCCCCCCCCCS(=O)(=O)NC(CCCCCC)COS(=O)(=O)CCCOCc1ccccc1` (stereo not given), 28%.
For `CCCCCCCCCCS(=O)(=O)NC(CCCCCC)COCC(F)(F)F` (stereo not given) the value was 0%; for `CCCCCCCCCCS(=O)(=O)NC(CCCCCC)COP(=O)(O)OCCN` (stereo not given), 4%.
